In patent US10329282B2, “Rho-associated protein kinase inhibitor, pharmaceutical composition comprising the same, as well as preparation method and use thereof” (Beijing Tide Pharmaceutical Co., Ltd., priority 2017, dated 2019):

target: ROCK2 (Homo sapiens (Human), UniProt O75116); test: ROCK2 kinase IC50 assay (CISBIO HTRF KinEASE-STK S2 kit); assay type: biochemical; conditions: ROCK2 from Carna Biosciences, 2 h incubation at room temperature
Experimental: The kinase IC50 was determined by a commercialized CISBIO kinase detection kit, HTRF KinEASE-STK S2 kit (62ST2PEC). ROCK2 (01-119) employed in the reaction was purchased from Carna Biosciences.
Before the assay, the following working solutions as needed were formulated with corresponding reagents according to the instruction of the kinase detection kit: 1×kinase buffer, 5×STK-52 substrate working solution (1.5 μM) and 5×ATP working solution (1.5 μM), 5×ROCK2 kinase working solution, 4×Streptavidin-XL665 working solution, and 4×STK-Ab-Cryptate 2 detection solution. Then the assay was performed according to the following procedure.
A solution of a compound at a concentration of 10000 nM was prepared with the 1×kinase buffer containing 2.5% DMSO. Gradient dilution of the solution of the compound was performed with the kinase buffer containing DMSO, so as to obtain solutions of a test compound at 9 different concentrations. In addition to wells of test compounds, a positive well (containing all the reagents except the compound) and a negative well (containing all the reagents except the test compound and kinase) were set. Except for the control wells (positive and negative wells), a solution of a test compound (4 μL) was added to each of the reaction wells, and a solution of 2.5% DMSO was added to the control wells. Then the substrate (2 μM, i.e., 2 μL 5×STK-S2 substrate working solution) was added to each of the reaction wells. The 5×ROCK2 kinase working solution (2 μL, containing 1.4 ng ROCK2 kinase) was added to each of the reaction wells except for the negative well, the volume of which was made up with the 1×kinase buffer (2 μL). The 5×ATP working solution (2 μL) was added to each of the reaction wells, and the mixtures were incubated at room temperature for 2 hours. After the kinase reaction was complete, the 4×Streptavidin-XL665 working solution was added to each of the reaction wells, the solutions were mixed, followed by immediate addition of the 4×STK-Ab-Cryptate 2 detection solution (5 μL), and the mixtures were incubated at room temperature for 1 hour. The fluorescence signal was read on ENVISION (Perkinelmer) (excitation wavelength: 320 nm, and emission wavelength: 665 nm and 615 nm). The inhibitory rate in each well was calculated based on the fluorescence intensity value: ER (Emission Ratio)=(fluorescence intensity at 665 nm/fluorescence intensity at 615 nm); inhibitory rate=(ERpositive−ERtest compound) (ERpositive−ERnegative)*100%. Curves were plotted and fitted to obtain the median inhibitory concentration (IC50) of each teat compound with the PRISM 5.0 software.

ROCK2, sequence (O75116 1-553): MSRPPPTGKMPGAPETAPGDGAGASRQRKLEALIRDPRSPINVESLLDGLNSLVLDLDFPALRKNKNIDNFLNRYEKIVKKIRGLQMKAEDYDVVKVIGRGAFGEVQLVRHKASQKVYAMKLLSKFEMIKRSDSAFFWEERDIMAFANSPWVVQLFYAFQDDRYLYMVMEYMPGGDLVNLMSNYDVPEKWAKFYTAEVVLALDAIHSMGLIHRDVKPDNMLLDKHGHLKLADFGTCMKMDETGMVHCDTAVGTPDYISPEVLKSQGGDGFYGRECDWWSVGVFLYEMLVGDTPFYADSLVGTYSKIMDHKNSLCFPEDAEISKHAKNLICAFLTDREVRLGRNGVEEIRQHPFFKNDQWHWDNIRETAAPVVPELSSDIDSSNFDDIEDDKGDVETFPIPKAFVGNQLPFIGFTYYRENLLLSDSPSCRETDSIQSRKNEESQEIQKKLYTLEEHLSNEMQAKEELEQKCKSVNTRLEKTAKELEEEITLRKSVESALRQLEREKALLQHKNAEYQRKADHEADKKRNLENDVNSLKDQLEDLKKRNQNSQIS

CN(C)c1ccc(NC(=O)c2cc3ccc(-c4nccc(Nc5ccc6[nH]ncc6c5)n4)cc3[nH]2)cn1 [TDI01221, 6-(4-((1H-indazol-5-yl)amino)pyrimidin-2-yl)-N-(6-(dimethylamino)pyridin-3-yl)-1H-indole-2-carboxamide] and O=C(Nc1cccnc1)c1cc2ccc(-c3nccc(Nc4ccc5[nH]ncc5c4)n3)cc2[nH]1 [TDI01171, 6-(4-((1H-indazol-5-yl)amino)pyrimidin-2-yl)-N-(pyridin-3-yl)-1H-indole-2-carboxamide] are within 1.5-fold of each other in IC50: 91 nM for the first, 63 nM for the second.

Going from C[C@@H](NC(=O)c1cc2ccc(-c3nccc(Nc4ccc(-c5cn[nH]c5)cc4)n3)cc2[nH]1)c1ccncc1 [TDI01849B, (R)-6-(4-((4-(1H-pyrazol-4-yl)phenyl)amino)pyrimidin-2-yl)-N-(1-(pyridin-4-yl)ethyl)-1H-indole-2-carboxamide] to CC(C)NC(=O)c1cc2ccc(-c3nccc(Nc4ccc(-c5cn[nH]c5)cc4)n3)cc2[nH]1 [TDI01280, 6-(4-((4-(1H-pyrazol-4-yl)phenyl)amino)pyrimidin-2-yl)-N-isopropyl-1H-indole-2-carboxamide], the IC50 falls from 210 nM to 94 nM (2.2-fold). The second is the more potent here.

CCN(CCO)C(=O)c1cc2ccc(-c3nccc(Nc4ccc(-c5cn[nH]c5)cc4)n3)cc2[nH]1 [TDI01415, 6-(4-((4-(1H-pyrazol-4-yl)phenyl)amino)pyrimidin-2-yl)-N-ethyl-N-(2-hydroxyethyl)-1H-indole-2-carboxamide] and CN(C)C(=O)c1cc2ccc(-c3nccc(Nc4ccc(-c5cn[nH]c5)cc4)n3)cc2[nH]1 [TDI01294, 6-(4-((4-(1H-pyrazol-4-yl)phenyl)amino)pyrimidin-2-yl)-N,N-dimethyl-1H-indole-2-carboxamide] are within 1.5-fold of each other in IC50: 262 nM for the first, 352 nM for the second.

Compared with O=C(Nc1ccccc1)c1cc2ccc(-c3nccc(Nc4ccc5[nH]ncc5c4)n3)cc2[nH]1 [TDI01215, 6-(4-((1H-indazol-5-yl)amino)pyrimidin-2-yl)-N-phenyl-1H-indole-2-carboxamide], O=C(Nc1cn[nH]c1)c1cc2ccc(-c3nccc(Nc4ccc5[nH]ncc5c4)n3)cc2[nH]1 [TDI01199, 6-(4-((1H-indazol-5-yl)amino)pyrimidin-2-yl)-N-(1H-pyrazol-4-yl)-1H-indole-2-carboxamide] is 13-fold lower in IC50: 382 nM for the first, 30 nM for the second. The second is the more potent here.

Compared with CN1CCC(N2CCCC(NC(=O)c3cc4ccc(-c5nccc(Nc6ccc7[nH]ncc7c6)n5)cc4[nH]3)C2)CC1 (stereo not drawn) [TDI01318, 6-(4-((1H-indazol-5-yl)amino)pyrimidin-2-yl)-N-(1′-methyl-[1,4′-bipiperidin]-3-yl)-1H-indole-2-carboxamide], CN1CCN(CC(=O)n2ccc3ccc(-c4nccc(Nc5ccc6[nH]ncc6c5)n4)cc32)CC1 [TDI01230, 1-(6-(4-((1H-indazol-5-yl)amino)pyrimidin-2-yl)-1H-indol-1-yl)-2-(4-methylpiperazin-1-yl)ethan-1-one] is 6.1-fold higher in IC50: 18 nM for the first, 109 nM for the second. The first is the more potent here.

First: CC(C)NC(=O)c1cc2ccc(-c3nc(Nc4ccc5[nH]ncc5c4)c4occc4n3)cc2s1 [TDI01135, 6-(4-((1H-indazol-5-yl)amino)furo[3,2-d]pyrimidin-2-yl)-N-isopropylbenzo[b]thiophene-2-carboxamide]
Second: CC(C)NC(=O)c1ccc2ccc(-c3nccc(Nc4ccc5[nH]ncc5c4)n3)cc2n1 [TDI01327, 7-(4-((1H-indazol-5-yl)amino)pyrimidin-2-yl)-N-isopropylquinoline-2-carboxamide]
The IC50 of the first is 3.8-fold lower: 123 nM for the first, 472 nM for the second. The first is the more potent here.

Going from O=C(c1cc2ccc(-c3nccc(Nc4ccc(-c5cn[nH]c5)cc4)n3)cc2[nH]1)N1CC(C(F)F)C1 [TDI01435] to O=C(NC1CCOC1)c1cc2ccc(-c3nccc(Nc4ccc(-c5cn[nH]c5)cc4)n3)cc2[nH]1 (stereo not drawn) [TDI01337, 6-(4-((4-(1H-pyrazol-4-yl)phenyl)amino)pyrimidin-2-yl)-N-(tetrahydrofuran-3-yl)-1H-indole-2-carboxamide], the IC50 rises from 28 nM to 121 nM (4.3-fold). The first is the more potent here.

With CC(C)(C)OC(=O)n1cc(NC(=O)c2cc3ccc(-c4nccc(Nc5ccc6[nH]ncc6c5)n4)cc3[nH]2)cn1 [TDI01200, tert-butyl 4-(6-(4-((1H-indazol-5-yl)amino)pyrimidin-2-yl)-1H-indole-2-carboxamido)-1H-pyrazole-1-carboxylate] the IC50 was 23 nM.
